# Patent US8110399B2, “Stem cells of the islets of langerhans and their use in treating diabetes mellitus” (The General Hospital Corporation, priority 1999, dated 2012)
# Columns and labels:
# nestin-positive NIPs = assay: Intracellular Ca2+ concentration in single isolated NIPs; format: cell-based, human
# Experimental: The application of GLP-1 amide to single, isolated […] elevates levels of intracellular Ca^2+ concentration ([Ca^2+]i). Cells were plated onto gridded coverslips to permit subsequent immunohistochemical staining of the same cells to test for nestin expression.
# [1] = test system: partial pancreatectomy rat model of type 2 diabetes; details: daily administration for 10 days post pancreatectomy; cited from earlier work
# NIP cultures = assay: Immunocytochemical detection of differentiation of NIPs; format: cell-based, human; details: for Idx-1 immunostaining / insulin immunostaining: NIP cultures expanded 7-10 days, then treated
# Experimental: Nestin-positive pancreatic islet stem cells were analyzed for GLP-1R expression. Human islet tissue was obtained from the Juvenile Diabetes Research Center for Islet Transplantation, Harvard Medical School. NIPs were isolated as described previously (Zulewski, et al., 2001, Diabetes 50: 521). Briefly, islets were washed and cultured in RPMI 1640 medium containing serum, 11.1 mM glucose, antibiotics, sodium pyruvate, β-mercaptoethanol, and growth factors. Within several days, nestin-positive cells (identified immunocytochemically as described above) grew out from the islets. Later, these cells were cloned and expanded in medium containing 20 ng/ml of basic fibroblast growth factor and epidermal growth factor or 1000 units of recombinant human leukemia inhibitory factor. Incubation with GLP-1 was administered in the absence of serum and fresh peptide was added every 48 h without changing the medium.
# Immunocytochemical detection of GLP-1R was performed using rabbit polyclonal antisera (Heller et al., supra) as follows. Cells cultured on Lab-Tek chamber slides (Nunc, Naperville, Ill.) or gridded coverslips (Bellco Glass, NJ) were fixed with 4% paraformaldehyde in PBS for 10 minutes at room temperature. After several rinses in PBS, cells were blocked with normal donkey serum for 30 minutes and incubated with primary antisera or pre-immune sera at 4° C. The following day, cells were rinsed with PBS and incubated with secondary antisera (donkey anti-rabbit and donkey anti-guinea pig) labeled with Cy-3 or Cy-2 for 1 hour at room temperature. After several washes, coverslips containing cells were mounted onto slides in mounting medium containing DAPI (Vector Laboratories, Burlingame, Calif.) which stains nuclei. Fluorescence images were obtained using a Zeiss epifluorescence microscope equipped with an Optronics TEC-470 CCD camera (Optronics Engineering, Goleta, Calif.) interfaced with a Powermac 7100. IP lab Spectrum software (Signal Analytics, Vienna, Va.) was used to acquire and analyze images.
# NIPs were picked from islet cultures and expanded in growth medium containing bFGF plus EGF (passage 01) for 3-10 days (Zulewski et al., 2001 Diabetes 50: 521). In certain instances NIPOs that were expanded for 3-5 days were fixed and subjected to immunocytochemical detection of Nestin (Cy-3) and Insulin (Cy-2) as shown in FIG. 24A. […] Accordingly, treatment with Extendin-4 induced a 2- to 3-fold increase in insulin secretion (FIG. 25). However, in some culture wells, confluence alone was sufficient to initiate small amounts of insulin secretion.
# islet mass = assay: Islet mass after injection of GLP-1 into mice; format: in vivo; details: in 48 hours
# diabetic mice = details: cited from earlier work
molecule,measurement,setting,value
[La+3] [La^3+],[Ca2+]i increase mediated by GLP-1,nestin-positive NIPs; extracellular La3+ 5 μM,inhibited
CCCCNC(=O)NS(=O)(=O)c1ccc(C)cc1 [tolbutamide],[Ca2+]i elevation,nestin-positive NIPs; tolbutamide 100 μM,stimulates [Ca^2+]i elevation
"Extendin (9-39): peptide, a specific antagonist of GLP-1 (GLP-1R antagonist)",increase in [Ca2+]i mediated by GLP-1,nestin-positive NIPs; pretreatment of single isolated NIPs with antagonist,prevents the increase
exendin-4 [Extendin-4],development of diabetes,[1],attenuated the development of diabetes
same,Idx-1 immunostaining,NIP cultures,Idx-1 positive
same,insulin immunostaining,NIP cultures,a subset of cells became insulin positive
"glucagon-like peptide-1 (HDEFERHAEGTFTSDVSSYLEGQAAKEFIAWLVKGRG) [GLP-1, insulinotropic hormone glucagon-like peptide (GLP)-1 produced by the intestine]",Idx-1 immunostaining,NIP cultures,Idx-1 positive
same,insulin immunostaining,NIP cultures,a subset of cells became insulin positive
same,nestin expression of the cultures,NIP cultures; cultures treated with GLP-1,overall decrease in nestin expression
same,increase of islet mass,islet mass,2 fold
same,blood sugar levels,diabetic mice,effectively lowers their blood sugar levels
same,insulin secretion,diabetic mice,stimulates insulin secretion
same,[Ca2+]i levels,nestin-positive NIPs; basal (5.6 mM) glucose,stimulates [Ca^2+]i levels
same,[Ca2+]i levels,nestin-positive NIPs; high (20 mM) glucose,ineffective
